Test results from the supplement of paper PMC10307832.

What was measured:
Test in all cases: relative viability (nuclei count vs DMSO), 5 days (fraction); higher = more cells survive
[1] = compound: O=C(C[C@H]1NCCC[C@@H]1O)Cn1cnc2cc(Br)c(Cl)cc2c1=O (racemic) [Halofuginone] + CS(=O)(=O)CCNCc1ccc(-c2ccc3ncnc(Nc4ccc(OCc5cccc(F)c5)c(Cl)c4)c3c2)o1 [Lapatinib] (partner 2 µM)
In short: (§1)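 Lung cancer cell lines were pin-tool dosed in 1536-well plates on the day after seeding, with either a lone drug or a fixed anchor-drug dose plus five library-drug doses (not always all listed) in √10 steps. Nuclei were counted on 4× images after 5 days. Relative viability is the ratio of treated-well to vehicle-well nuclei counts, with each value a median of duplicate plates.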

[2] = compound: COc1cc2c(Oc3ccc4[nH]c(C)cc4c3F)ncnc2cc1OCCCN1CCCC1 [Cediranib] + COc1cccc2cc(-c3nc([C@H]4CC[C@H](C(=O)O)CC4)n4ncnc(N)c34)[nH]c12 [OSI-027] (partner 0.5 µM)
In short: as §1

[3] = compound: Nc1ncn([C@H]2C[C@H](O)[C@@H](CO)O2)c(=O)n1 [Decitabine] + Nc1nc2[nH]cc(CCc3ccc(C(=O)N[C@@H](CCC(=O)O)C(=O)O)cc3)c2c(=O)[nH]1 [Pemetrexed] (partner 0.2 µM)
In short: as §1

[4] = compound: COc1cc2c(Oc3ccc4[nH]c(C)cc4c3F)ncnc2cc1OCCCN1CCCC1 [Cediranib] + Nc1ncn([C@H]2C[C@H](O)[C@@H](CO)O2)c(=O)n1 [Decitabine] (partner 2 µM)
In short: as §1

| Cell Line | relative viability ([1]; first compound 0.001 µM) | relative viability ([1]; first compound 0.003162 µM) | relative viability ([1]; first compound 0.01 µM) | relative viability ([1]; first compound 0.03162 µM) | relative viability ([1]; first compound 0.1 µM) | relative viability ([2]; first compound 0.04 µM) | relative viability ([2]; first compound 0.1265 µM) | relative viability ([2]; first compound 0.4 µM) | relative viability ([2]; first compound 1.265 µM) | relative viability ([2]; first compound 4 µM) | relative viability ([3]; first compound 0.04 µM) | relative viability ([3]; first compound 0.1265 µM) | relative viability ([3]; first compound 0.4 µM) | relative viability ([3]; first compound 1.265 µM) | relative viability ([3]; first compound 4 µM) | relative viability ([4]; first compound 0.04 µM) | relative viability ([4]; first compound 0.1265 µM) | relative viability ([4]; first compound 0.4 µM) | relative viability ([4]; first compound 1.265 µM) | relative viability ([4]; first compound 4 µM) |
| --- | --- | --- | --- | --- | --- | --- | --- | --- | --- | --- | --- | --- | --- | --- | --- | --- | --- | --- | --- | --- |
| NCI-H1944 | 0.709 | 0.835 | 0.852 | 0.825 | 0.675 | 0.382 | 0.513 | 0.422 | 0.39 | 0.429 | 0.438 | 0.448 | 0.288 | 0.228 | 0.211 | 0.443 | 0.396 | 0.422 | 0.443 | 0.45 |
| LK-2 | 1.01 | 0.801 | 0.951 | 0.891 | 0.778 | 0.181 | 0.192 | 0.22 | 0.175 | 0.201 | 0.194 | 0.256 | 0.223 | 0.245 | 0.211 | 0.287 | 0.231 | 0.396 | 0.269 | 0.273 |
| NCI-H23 | 1.28 | 1.03 | 1.2 | 0.713 | 0.707 | 0.511 | – | 0.557 | 0.511 | 0.582 | 0.572 | 0.546 | 0.322 | 0.294 | 0.272 | 0.327 | 0.355 | 0.31 | 0.312 | 0.339 |
| NCI-H647 | 1.14 | 1.07 | 1.04 | 1.02 | 0.533 | 0.614 | 0.694 | 0.549 | 0.49 | 0.841 | 0.168 | 0.149 | 0.12 | 0.13 | 0.112 | 0.415 | 0.414 | 0.448 | 0.349 | 0.405 |
| 201T | 1.02 | 0.97 | 1.05 | 1.04 | 1.04 | 0.945 | 0.841 | 0.671 | 0.717 | 0.692 | 0.297 | 0.286 | 0.227 | – | 0.254 | 0.876 | 0.89 | 0.889 | 0.868 | 0.878 |
| NCI-H1734 | 1.12 | 1.02 | 1.05 | 0.986 | 0.812 | 0.517 | 0.705 | 0.583 | 0.515 | 0.64 | 0.345 | 0.323 | 0.293 | 0.262 | 0.284 | 0.531 | 0.512 | 0.551 | 0.497 | 0.536 |
| NCI-H596 | 1.06 | 1.18 | 1.02 | 1.07 | 0.661 | 0.775 | 0.815 | 0.723 | – | 0.788 | 0.582 | 0.456 | 0.338 | 0.44 | 0.484 | 1.04 | 1.1 | 0.978 | 0.918 | 1.18 |
